{"source": "ChEMBL document CHEMBL5620374", "about": "“Synthesis and bioevaluation of novel stilbene-based derivatives as tubulin/HDAC dual-target inhibitors with potent antitumor activities in vitro and in vivo” (Eur J Med Chem, 2023)", "key": {"[1]": {"system": "K562", "test": "Inhibition of mitochondrial membrane potential in human K562 cells assessed as red fluorescence intensity at 8 nM incubated for 48 hrs by JC-1 staining based flow cytometry (reference value: 93.36 +/- 0.21 %)", "assay_type": "functional"}, "[2]": {"target": "T1, Protein deacetylase HDAC6 (Homo sapiens, UniProt Q9UBN7)", "T1 sequence (Q9UBN7 whole entry)": "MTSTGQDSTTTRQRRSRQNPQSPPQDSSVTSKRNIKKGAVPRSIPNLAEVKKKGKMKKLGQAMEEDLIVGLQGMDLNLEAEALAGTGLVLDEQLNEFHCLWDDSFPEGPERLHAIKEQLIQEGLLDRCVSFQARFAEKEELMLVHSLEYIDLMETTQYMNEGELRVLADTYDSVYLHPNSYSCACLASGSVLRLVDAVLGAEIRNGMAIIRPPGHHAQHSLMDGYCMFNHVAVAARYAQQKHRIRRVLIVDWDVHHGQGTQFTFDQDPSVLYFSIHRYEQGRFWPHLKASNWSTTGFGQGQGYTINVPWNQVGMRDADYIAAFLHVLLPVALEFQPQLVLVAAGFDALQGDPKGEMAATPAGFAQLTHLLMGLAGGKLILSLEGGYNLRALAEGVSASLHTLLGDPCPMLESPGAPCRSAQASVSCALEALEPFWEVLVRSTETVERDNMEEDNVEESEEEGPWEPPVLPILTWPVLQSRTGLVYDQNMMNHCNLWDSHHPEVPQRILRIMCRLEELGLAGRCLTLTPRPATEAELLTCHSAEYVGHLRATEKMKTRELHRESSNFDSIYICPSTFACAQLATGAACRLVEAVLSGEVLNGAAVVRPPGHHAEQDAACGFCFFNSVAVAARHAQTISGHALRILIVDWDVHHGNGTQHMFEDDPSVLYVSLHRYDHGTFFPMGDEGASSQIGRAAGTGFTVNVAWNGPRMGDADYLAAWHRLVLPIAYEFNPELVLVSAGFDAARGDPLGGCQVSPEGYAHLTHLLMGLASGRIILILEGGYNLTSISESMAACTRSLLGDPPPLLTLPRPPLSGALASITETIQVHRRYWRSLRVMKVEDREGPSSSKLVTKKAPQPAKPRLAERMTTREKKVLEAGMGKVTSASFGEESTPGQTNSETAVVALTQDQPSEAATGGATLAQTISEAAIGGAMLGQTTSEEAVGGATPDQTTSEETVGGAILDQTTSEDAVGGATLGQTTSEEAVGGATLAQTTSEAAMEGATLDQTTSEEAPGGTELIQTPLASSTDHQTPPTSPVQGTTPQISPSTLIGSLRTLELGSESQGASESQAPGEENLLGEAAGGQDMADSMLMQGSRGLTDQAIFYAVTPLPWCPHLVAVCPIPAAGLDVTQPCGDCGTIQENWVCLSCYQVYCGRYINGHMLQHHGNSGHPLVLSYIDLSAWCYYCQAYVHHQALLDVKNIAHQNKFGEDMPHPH", "test": "Inhibition of HDAC6 derived from human HeLa cell extract using Ac-Leu-Gly-Lys (Ac)-AMC as substrate by fluorescence based assay", "assay_type": "cell-free"}, "[3]": {"system": "K562", "test": "Effect on cell cycle in human K562 cells assessed as decrease in Cdc25c level incubated for 24 hrs by Western blot analysis", "assay_type": "functional, cell-based", "conditions": "dose 2-8 nM"}, "[4]": {"system": "K562", "test": "Induction of apoptosis in human K562 cells assessed as necrotic cells at 4 nM incubated for 48 hrs by Annexin V/PI staining based flow cytometry (reference value: 2.56 +/- 0.22 %)", "assay_type": "functional"}}, "note": "pIC50: −log10 of the molar value."}
{"smiles": "C=C(c1ccc(OC)c(OC(F)C(=O)NO)c1)c1cc(C)nc2ccccc12", "note": "(centres undefined)", "values": [{"measurement": "Flu intensity", "setting": "[1]", "result": 57.69, "unit": "%"}, {"measurement": "pIC50", "setting": "[2]", "result": 6.34}, {"measurement": "Activity", "setting": "[3]", "result": "Dose-Dependent Effect"}, {"measurement": "Activity", "setting": "[4]", "result": 0.17, "unit": "%"}]}
